# Columns and labels:
# Type in all cases: in vivo
# [1] = tested on: canarygrass (Phalaris minor); experiment: Test B postemergence plant response; conditions: Postemergence
# Procedure, shortened: (§1)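 Plants grown in peat/vermiculite medium were sprayed postemergence at 2–18 cm height (1- to 4-leaf stage). After 13–15 days in the greenhouse, response was rated visually against untreated controls on a 0–100 scale (0 no effect, 100 complete control).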
# [2] = tested on: windgrass (Apera spica-venti); experiment: Test B postemergence plant response; conditions: Postemergence
# Procedure, shortened: as §1
# [3] = tested on: chickweed (Stellaria media); experiment: Test B postemergence plant response; conditions: Postemergence
# Procedure, shortened: as §1
# [4] = tested on: Surinam grass (Brachiaria decumbens); experiment: Test B pre-/postemergence plant response; conditions: Postemergence, 31 g ai/ha; 0 to 100 scale (0 no effect, 100 complete control)
# Procedure, shortened: (§2)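 Test compounds, formulated in a non-phytotoxic solvent mixture with surfactant, are applied to the soil surface (loam and sand blend) right after seeding, or sprayed over plants at the 1- to 4-leaf stage grown in peat moss/vermiculite medium. After 13 to 15 days under glasshouse conditions, each species is scored visually from 0 (no effect) to 100 (complete control) against controls.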
# [5] = tested on: wheat (Triticum aestivum); experiment: Test B pre-/postemergence plant response; conditions: Postemergence
# Procedure, shortened: as §2
# kochia (Kochia scoparia) = experiment: Test B pre-/postemergence plant response; conditions: Postemergence
# Procedure, shortened: as §2
# [6] = tested on: blackgrass (Alopecurus myosuroides); experiment: Test B pre-/postemergence plant response; conditions: for Plant response rating, Blackgrass: Postemergence
# Procedure, shortened: as §2
# [7] = tested on: cocklebur (Xanthium strumarium); experiment: Test B pre-/postemergence plant response; conditions: Postemergence
# Procedure, shortened: as §2
# [8] = tested on: lambsquarters (Chenopodium album); experiment: Test B pre-/postemergence plant response; conditions: Postemergence
# Procedure, shortened: as §2
# wild oat (Avena fatua) = experiment: Test B pre-/postemergence plant response; conditions: Postemergence
# Procedure, shortened: as §2
# [9] = tested on: velvetleaf (Abutilon theophrasti); experiment: Test B pre-/postemergence plant response; conditions: Postemergence
# Procedure, shortened: as §2
# [10] = tested on: pigweed (Amaranthus retroflexus); experiment: Test B pre-/postemergence plant response; conditions: Postemergence
# Procedure, shortened: as §2
# soybean (Glycine max) = experiment: Test B pre-/postemergence plant response; conditions: Postemergence
# Procedure, shortened: as §2
# [11] = 31 g ai/ha, 0 to 100 scale (0 no effect, 100 complete control)
# [12] = 125 g ai/ha, scale 0 to 100 (0 no effect, 100 complete control)
# [13] = 250 g ai/ha, scale 0 to 100 (0 no effect, 100 complete control), 13 to 15 days
compound,measurement,setting,value
O=C1CCCC(O)=C1C(=O)c1cnc(-c2cccc(F)c2)n(C2CCCCC2)c1=O [Compound 187],"Plant response rating, Canarygrass",[1]; [11],10
same,"Plant response rating, Canarygrass",[1]; [12],55
same,"Plant response rating, Canarygrass",[1]; [13],60
same,"Plant response rating, Windgrass",[2]; [11],10
same,"Plant response rating, Windgrass",[2]; [12],65
same,"Plant response rating, Windgrass",[2]; [13],80
same,"Plant response rating, Chickweed",[3]; [11],100
same,"Plant response rating, Chickweed",[3]; [12],100
same,"Plant response rating, Chickweed",[3]; [13],100
same,"Plant response rating, Surinam Grass",[4],65
same,"Plant response rating, Wheat",[5]; [11],0
same,"Plant response rating, Wheat",[5]; [12],5
same,"Plant response rating, Wheat",[5]; [13],5
same,"Plant response rating, Kochia",kochia (Kochia scoparia); [11],40
same,"Plant response rating, Kochia",kochia (Kochia scoparia); [12],70
same,"Plant response rating, Kochia",kochia (Kochia scoparia); [13],80
same,Blackgrass plant response rating (0 to 100 scale),"[6]; 62 g ai/ha, postemergence, 0 is no effect, 100 is complete control, 13 to 15 days",0
same,"Plant response rating, Blackgrass",[6]; [11],0
same,"Plant response rating, Blackgrass",[6]; [12],5
same,"Plant response rating, Blackgrass",[6]; [13],5
same,"Plant response rating, Cocklebur",[7]; [11],100
same,"Plant response rating, Cocklebur",[7]; [12],100
same,"Plant response rating, Cocklebur",[7]; [13],100
same,"Plant response rating, Lambsquarters",[8]; [11],98
same,"Plant response rating, Lambsquarters",[8]; [12],100
same,"Plant response rating, Lambsquarters",[8]; [13],100
same,"Plant response rating, Oat, Wild",wild oat (Avena fatua); [11],10
same,"Plant response rating, Oat, Wild",wild oat (Avena fatua); [12],45
same,"Plant response rating, Oat, Wild",wild oat (Avena fatua); [13],45
same,"Plant response rating, Velvetleaf",[9]; [11],90
same,"Plant response rating, Velvetleaf",[9]; [12],100
same,"Plant response rating, Velvetleaf",[9]; [13],100
same,"Plant response rating, Pigweed",[10]; [11],100
same,"Plant response rating, Pigweed",[10]; [12],100
same,"Plant response rating, Pigweed",[10]; [13],100
same,"Plant response rating, Soybean",soybean (Glycine max); [11],98
same,"Plant response rating, Soybean",soybean (Glycine max); [12],100
same,"Plant response rating, Soybean",soybean (Glycine max); [13],100
